The text below walks through data of patent US20190256509A1, “HISTONE DEMETHYLASE INHIBITORS” (CHRYSALIS, INC., priority 2016, published 2019).

Each structure is given as a SMILES string.

The target of this test is T1, KDM5B enzyme (Homo sapiens, UniProt Q9UGL1).
T1 construct: Reaction Biology Corp (named for the assay, not expressly for the enzyme)
T1 sequence (Q9UGL1 whole entry): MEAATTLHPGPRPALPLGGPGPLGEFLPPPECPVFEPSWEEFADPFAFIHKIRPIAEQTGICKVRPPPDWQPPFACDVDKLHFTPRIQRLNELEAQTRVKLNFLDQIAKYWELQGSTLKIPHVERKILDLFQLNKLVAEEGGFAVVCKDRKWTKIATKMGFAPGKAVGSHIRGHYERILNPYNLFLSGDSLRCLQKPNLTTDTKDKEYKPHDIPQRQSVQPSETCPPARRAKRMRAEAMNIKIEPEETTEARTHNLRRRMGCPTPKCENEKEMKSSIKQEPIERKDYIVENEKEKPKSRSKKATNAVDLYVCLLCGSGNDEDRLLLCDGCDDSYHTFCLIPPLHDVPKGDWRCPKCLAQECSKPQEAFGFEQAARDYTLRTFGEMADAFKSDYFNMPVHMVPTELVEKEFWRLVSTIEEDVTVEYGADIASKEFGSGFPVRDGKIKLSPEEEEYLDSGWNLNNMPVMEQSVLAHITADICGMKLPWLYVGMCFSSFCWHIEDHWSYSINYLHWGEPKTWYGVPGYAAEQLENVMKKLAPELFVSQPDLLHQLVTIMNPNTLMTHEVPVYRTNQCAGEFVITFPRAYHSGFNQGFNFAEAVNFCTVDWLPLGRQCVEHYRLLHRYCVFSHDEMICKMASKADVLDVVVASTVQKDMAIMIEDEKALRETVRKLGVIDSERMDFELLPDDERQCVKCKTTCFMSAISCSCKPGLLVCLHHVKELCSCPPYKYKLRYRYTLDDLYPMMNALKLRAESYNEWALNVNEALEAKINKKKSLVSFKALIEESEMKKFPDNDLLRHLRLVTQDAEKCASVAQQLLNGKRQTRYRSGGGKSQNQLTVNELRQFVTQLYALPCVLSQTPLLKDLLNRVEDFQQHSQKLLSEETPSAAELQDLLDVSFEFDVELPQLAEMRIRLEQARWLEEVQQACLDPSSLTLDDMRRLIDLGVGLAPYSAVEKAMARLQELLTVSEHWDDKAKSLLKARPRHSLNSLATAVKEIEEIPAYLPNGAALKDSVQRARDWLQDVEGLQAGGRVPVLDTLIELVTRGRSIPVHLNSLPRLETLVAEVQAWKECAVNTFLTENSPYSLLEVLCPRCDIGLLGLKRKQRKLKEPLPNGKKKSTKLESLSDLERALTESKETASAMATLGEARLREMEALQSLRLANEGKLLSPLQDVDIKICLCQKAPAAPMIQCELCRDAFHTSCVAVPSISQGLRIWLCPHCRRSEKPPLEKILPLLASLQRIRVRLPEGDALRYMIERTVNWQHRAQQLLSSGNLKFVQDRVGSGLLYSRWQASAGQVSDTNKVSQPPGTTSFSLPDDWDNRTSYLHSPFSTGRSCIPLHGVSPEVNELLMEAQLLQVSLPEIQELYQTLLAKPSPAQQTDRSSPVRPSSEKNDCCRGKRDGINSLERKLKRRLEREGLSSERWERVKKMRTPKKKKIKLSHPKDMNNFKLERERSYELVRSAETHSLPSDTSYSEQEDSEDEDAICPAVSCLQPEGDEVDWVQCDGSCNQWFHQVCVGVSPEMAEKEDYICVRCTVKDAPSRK
The test is described as follows: KDM5B HTRF (TR-FRET) demethylase inhibition assay. Format: biochemical. The settings on record: 1.2 nM KDM5B, 30 nM Biotin-H3K4Me3 1-21 substrate, 10 point dose-response. The protocol:
Ten point dose-response curves for the compounds of Examples 1-135 were determined using a homogeneous time resolved fluorescence (HTRF) assay (Reaction Biology Corp, Malvern, Pa.). This assay combines fluorescence resonance energy transfer (FRET) with time resolve (TR) measurements (TR-FRET). The KDM5B α-ketoglutarate-dependent demethylase activity is calculated by measuring demethylation of a biotin labeled histone tri-methylated H3K4 substrate using an europium-cryptate (Eu)-labeled antibody donor specific for dimethylated histone H3K4 and a Streptavidin-XL665 acceptor that binds to the biotin group of substrate, and detecting FRET by exciting the reaction mixture at 320 nm and reading dual emissions at 615 nm and 665 nm.
Briefly, compounds disclosed herein were solubilized in DMSO and a series of 10, three-fold serial dilutions were made for each compound in 100% DMSO. The initial starting concentration for the serial dilutions of each compound was 10 μM or 100 μM. Control samples lacking compound, KDM5B enzyme or various reaction components also were prepared and processed in parallel with compound test samples.
An aliquot of each serial dilution of test compound was added to a 384 well plate (Corning Cat #3572) containing 1.2 nM KDM5B enzyme suspended in 50 mM Hepes, pH7.5, 50 mM NaCl, 0.01% Tween 20, 0.1% BSA, and 1% DMSO (final concentrations) in a 10 microliter reaction volume using a LABCYTE ECHO liquid handler. The samples were mixed, subjected to centrifugation and the plate was pre-incubated at room temperature for 15 minutes (min), to which 30 nM Biotin-H3K4Me3 1-21 substrate (Anaspec, Freemont Calif., Cat #64192), 20 μM Fe(II) and 20 μM α-ketoglutarate co-factors, and 100 μM Ascorbate were added to initiate the enzymatic reaction. The reaction mixture was incubated at room temperature for 45 minutes. A 10 μl aliquot of a detection mixture of Eu-labeled anti-histone H3K4Me2 antibody (CisBIO, Bedford Mass., Cat #610AXLB) and Streptavidin-XL665 (CisBIO, Bedford Mass., Cat #610 SAXLB) in 200 mM potassium fluoride and 10 mM EDTA was added and kinetic measurements were read at 5 minute intervals for a period of 30 minutes using an Envision Multiplate Reader (PerkinElmer Model 2102; excitation at 320 nm and emission reads at 615 nm and 665 nm). The IC50 value for each compound was determined from the 665/615 ratio obtained for each 10 point dose-response curve using GraphPad Prism 4 software with a sigmodial dose response.
(Time-resolved FRET reads energy transfer from a long-lived donor to a nearby acceptor.)
For `COc1cc(CNc2ccc3nccn3c2C(=O)O)ccc1O` [Example 75], the IC50 – broadly, the concentration that gives 50% inhibition – is greater than 1000 nM. In the case of `Cn1c(=O)n(C)c2cc(CNc3ccc4nccn4c3C(=O)O)ccc21` [Example 76], the concentration for half-maximal inhibition (IC50) was 500 to 1000 nM.

In turn, `O=C(O)c1c(NCc2ccc3c(c2)OC(F)(F)O3)ccc2nccn12` [Example 77] showed an IC50 of 500 to 1000 nM.

`O=C(O)c1c(NCc2ccc(-n3ccnc3)cc2)ccc2nccn12` [Example 78] displayed an IC50 of no more than 500 nM.

`O=C(O)c1c(NCc2cccc(F)c2F)ccc2nccn12` [Example 79] registered an IC50 greater than 1000 nM.

The compound `O=C(O)c1c(NCc2ccc3c(c2)OCCO3)ccc2nccn12` [Example 80] had an IC50 greater than 1000 nM. For `O=C(O)c1c(NCc2ccc(F)cc2F)ccc2nccn12` [Example 81] the value was 500 to 1000 nM. `O=C(O)c1c(NCc2cc(F)ccc2F)ccc2nccn12` [Example 82] registered a half-maximal inhibitory concentration (IC50) of 500 to 1000 nM. In turn, `O=C(O)c1c(NCc2ccccc2-n2cccn2)ccc2nccn12` [Example 83] gave an IC50 of no more than 500 nM. The result for `CS(=O)(=O)c1ccccc1CNc1ccc2nccn2c1C(=O)O` [Example 84] reads no more than 500 nM; that for `O=C(O)c1c(NCc2ccccc2F)ccc2nccn12` [Example 85], greater than 1000 nM. `O=C(O)c1c(NCc2ccccc2N2CCOCC2)ccc2nccn12` [Example 86] returned a half-maximal inhibitory concentration (IC50) greater than 1000 nM.

For `O=C(O)c1c(NCc2cc(F)c(F)c(F)c2)ccc2nccn12` [Example 87], the IC50 was greater than 1000 nM. In turn, `CS(=O)(=O)c1cccc(CNc2ccc3nccn3c2C(=O)O)c1` [Example 88] showed an IC50 of no more than 500 nM. `O=C(O)c1c(NCc2cccc(OC(F)(F)F)c2)ccc2nccn12` [Example 89] displayed an IC50 greater than 1000 nM. The result for `O=C(O)c1c(NCc2ccc(F)c(Br)c2)ccc2nccn12` [Example 90] reads greater than 1000 nM. Compound `O=C(O)c1c(NCc2ccccc2Cl)ccc2nccn12` [Example 91] yielded a concentration for half-maximal inhibition (IC50) greater than 1000 nM. For `COc1c(F)cccc1CNc1ccc2nccn2c1C(=O)O` [Example 92] the value was 500 to 1000 nM. Take `O=C(O)c1c(NCc2cc(F)cc(C(F)(F)F)c2)ccc2nccn12` [Example 93]: the 50% inhibitory concentration (IC50) was greater than 1000 nM. `COc1cccc(CNc2ccc3nccn3c2C(=O)O)c1` [Example 94] showed an IC50 of no more than 500 nM. In the case of `O=C(O)c1c(NCc2ccc(OC(F)(F)F)cc2)ccc2nccn12` [Example 95], the IC50 is greater than 1000 nM.

For `CN(C)c1ccc(CNc2ccc3nccn3c2C(=O)O)cc1` [Example 96], the IC50 was greater than 1000 nM. Regarding `COc1cc(CNc2ccc3nccn3c2C(=O)O)ccc1F` [Example 97], the IC50 fell in the range of 500 to 1000 nM.

The compound `O=C(O)c1c(NCc2ccc3c(c2)CCO3)ccc2nccn12` [Example 98] yielded a 50% inhibitory concentration (IC50) greater than 1000 nM. The result for `O=C(O)c1c(NCc2cc(Cl)c(F)cc2F)ccc2nccn12` [Example 99] reads greater than 1000 nM. The compound `CC(=O)N(C)c1cccc(CNc2ccc3nccn3c2C(=O)O)c1` [Example 100] returned an IC50 of 500 to 1000 nM. For the compound `Cc1nc2cc(C(O)c3ccccc3)ccn2c1C(=O)O` (centres unmarked) [Example 101], the half-inhibitory concentration (IC50) is greater than 1000 nM.

Take `O=C(O)c1cnc2cc(C(O)c3ccccc3)ccn12` (centres unmarked) [Example 102]: the IC50 is greater than 1000 nM. Regarding `CC(O)c1ccn2c(C(=O)O)cnc2c1` (centres unmarked) [Example 103], the concentration for half-maximal inhibition (IC50) was greater than 1000 nM. `O=C(O)c1cnc2cc(Oc3ccccc3)ccn12` [Example 104] gave an IC50 greater than 1000 nM. Compound `O=C(O)c1cnc2cc(Oc3ccc4ccncc4c3)ccn12` [Example 105] returned a half-maximal inhibitory concentration (IC50) greater than 1000 nM.

`CC(O)c1cc(C(=O)O)n2ccnc2c1` (centres unmarked) [Example 106] showed an IC50 greater than 1000 nM. As for `COc1ccccc1Oc1cc(C(=O)O)n2ccnc2c1` [Example 108], the concentration for half-maximal inhibition (IC50) is greater than 1000 nM. `O=C(O)c1cc(Oc2ccc3ccncc3c2)cc2nccn12` [Example 109] registered a concentration for half-maximal inhibition (IC50) greater than 1000 nM. For `COc1cc(Cl)ccc1CNc1ccc2nccn2c1C#N` [Example 110] the value was greater than 1000 nM; for `COc1cc(Cl)ccc1CNc1ccc2nccn2c1-c1nn[nH]n1` [Example 111], greater than 1000 nM.

In turn, `COc1ccc(Cl)cc1CNc1ccc2ncc(C(=O)O)n2c1` [Example 112] gave a half-maximal inhibitory concentration (IC50) greater than 1000 nM.

The compound `O=C(O)c1cc(-c2cn(Cc3ccc(Cl)cc3)cn2)cc2nccn12` [Example 113] displayed an IC50 of no more than 500 nM.

`COc1ccc(Cl)cc1CNc1ccc2nc(C)cn2c1C(=O)O` [Example 114] returned an IC50 greater than 1000 nM. As to `O=C(O)c1c(NCC2CCCc3cc(Oc4ccccc4)ccc32)ccc2nccn12` (centres unmarked) [Example 115], the IC50 was greater than 1000 nM.

For the compound `COc1cc(C)ccc1-c1ccc2ncc(C(=O)O)n2c1` [Example 116], the 50% inhibitory concentration (IC50) is greater than 1000 nM. The result for `COc1ccc(Cl)cc1CNc1cc(C(=O)O)n2ccnc2c1` [Example 117] reads greater than 1000 nM; that for `COc1cc(Cl)ccc1CNc1ccc2ncc(C(=O)O)n2c1` [Example 118], greater than 1000 nM; that for `COc1cc(Cl)ccc1CNc1ccc2nc(C)cn2c1C(=O)O` [Example 119], greater than 1000 nM. Compound `COc1cc(Cl)ccc1COc1ccc2nccn2c1C(=O)O` [Example 120] displayed an IC50 greater than 1000 nM. As for `O=C(O)c1c(NCc2cccc3c2CNCC3)ccc2nccn12` [Example 121], the IC50 is greater than 1000 nM. Consider `COc1cc(Cl)ccc1CNc1cc(C(=O)O)n2ccnc2c1` [Example 122], for which the IC50 was greater than 1000 nM.

Take `COc1cc(Cl)ccc1COc1cc(C(=O)O)n2ccnc2c1` [Example 123]: the half-maximal inhibitory concentration (IC50) is greater than 1000 nM. Turning to `CCN1CCN(c2ccc(CNc3ccc4nccn4c3C(=O)O)c3c2CCCC3)CC1` [Example 124], the half-maximal inhibitory concentration (IC50) is greater than 1000 nM. `COc1ccc(-c2cccc(CNc3ccc4nccn4c3C(=O)O)c2)cc1` [Example 125] came in with an IC50 greater than 1000 nM. For the compound `O=C(O)c1c(NCc2cccc(-c3cccnc3)c2)ccc2nccn12` [Example 126], the concentration for half-maximal inhibition (IC50) fell in the range of 500 to 1000 nM. `Cn1nccc1-c1cccc(CNc2ccc3nccn3c2C(=O)O)c1` [Example 127] yielded an IC50 of no more than 500 nM.

`N#Cc1cccc(CNc2ccc3nccn3c2C(=O)O)c1` [Example 128] returned an IC50 greater than 1000 nM. Regarding `COc1cc(Cl)ccc1OCc1cc(C(=O)O)n2ccnc2c1` [Example 129], the 50% inhibitory concentration (IC50) is no more than 500 nM. `COc1cc(CN2CCC(NCCc3ccccc3)CC2)ccc1CNc1ccc2nccn2c1C(=O)O` [Example 130] registered a half-maximal inhibitory concentration (IC50) of 500 to 1000 nM.

For the compound `CN(C)Cc1ccccc1CNc1ccc2nccn2c1C(=O)O` [Example 131], the 50% inhibitory concentration (IC50) is greater than 1000 nM. `O=C(O)c1cc(OCCN2CCC(c3cc(Cl)cc(Cl)c3)CC2)cc2nccn12` [Example 132] had an IC50 greater than 1000 nM.

On to `CN(Cc1ccc(F)cc1)Cc1ccc(Oc2cc(C(=O)O)n3ccnc3c2)cc1` [Example 134], for which the IC50 is greater than 1000 nM. For `O=C(O)c1cc(CCCN2CCC(c3cc(Cl)cc(Cl)c3)CC2)cc2nccn12` [Example 135] the value was no more than 500 nM.
